Assay results as given in ChEMBL document CHEMBL4020788, “Synthesis, SAR and molecular docking studies of benzo[d]thiazole-hydrazones as potential antibacterial and antifungal agents” (2017).
Calls of active or inactive are those of the source. The rule behind the calls is not given here.

Assays:
Assay type in all cases: functional
Staphylococcus aureus [1] = assay: Antibacterial activity against Staphylococcus aureus at 25 ug/ml after 24 hrs by agar well diffusion method
Staphylococcus aureus [2] = assay: Antibacterial activity against Staphylococcus aureus at 50 ug/ml after 24 hrs by agar well diffusion method
Staphylococcus aureus [3] = assay: Antibacterial activity against Staphylococcus aureus at 75 ug/ml after 24 hrs by agar well diffusion method
Staphylococcus aureus [4] = assay: Antibacterial activity against Staphylococcus aureus at 100 ug/ml after 24 hrs by agar well diffusion method
Bacillus subtilis [5] = assay: Antibacterial activity against Bacillus subtilis at 25 ug/ml after 24 hrs by agar well diffusion method; conditions: for zone of inhibition at 25 µg/mL: read-out: DIZ
Bacillus subtilis [6] = assay: Antibacterial activity against Bacillus subtilis at 50 ug/ml after 24 hrs by agar well diffusion method; conditions: for zone of inhibition at 50 µg/mL: read-out: DIZ
Bacillus subtilis [7] = assay: Antibacterial activity against Bacillus subtilis at 75 ug/ml after 24 hrs by agar well diffusion method; conditions: for zone of inhibition at 75 µg/mL: read-out: DIZ
Bacillus subtilis [8] = assay: Antibacterial activity against Bacillus subtilis at 100 ug/ml after 24 hrs by agar well diffusion method; conditions: for zone of inhibition at 100 µg/mL: read-out: DIZ
Escherichia coli [9] = assay: Antibacterial activity against Escherichia coli at 25 ug/ml after 24 hrs by agar well diffusion method; conditions: for zone of inhibition at 25 µg/mL: read-out: DIZ
Escherichia coli [10] = assay: Antibacterial activity against Escherichia coli at 50 ug/ml after 24 hrs by agar well diffusion method; conditions: for zone of inhibition at 50 µg/mL: read-out: DIZ
Escherichia coli [11] = assay: Antibacterial activity against Escherichia coli at 75 ug/ml after 24 hrs by agar well diffusion method; conditions: for zone of inhibition at 75 µg/mL: read-out: DIZ
Escherichia coli [12] = assay: Antibacterial activity against Escherichia coli at 100 ug/ml after 24 hrs by agar well diffusion method; conditions: for zone of inhibition at 100 µg/mL: read-out: DIZ
Klebsiella pneumoniae [13] = assay: Antibacterial activity against Klebsiella pneumoniae at 25 ug/ml after 24 hrs by agar well diffusion method
Klebsiella pneumoniae [14] = assay: Antibacterial activity against Klebsiella pneumoniae at 50 ug/ml after 24 hrs by agar well diffusion method
Klebsiella pneumoniae [15] = assay: Antibacterial activity against Klebsiella pneumoniae at 75 ug/ml after 24 hrs by agar well diffusion method; conditions: for zone of inhibition at 75 µg/mL: read-out: DIZ
Klebsiella pneumoniae [16] = assay: Antibacterial activity against Klebsiella pneumoniae at 100 ug/ml after 24 hrs by agar well diffusion method; conditions: for zone of inhibition at 100 µg/mL: read-out: DIZ
Staphylococcus aureus [17] = assay: Antibacterial activity against methicillin resistant Staphylococcus aureus MRSA090 at 25 ug/ml after 24 hrs by agar well diffusion method; conditions: for zone of inhibition at 25 µg/mL: MRSA090, 24 h, read-out: DIZ
Staphylococcus aureus [18] = assay: Antibacterial activity against methicillin resistant Staphylococcus aureus MRSA090 at 50 ug/ml after 24 hrs by agar well diffusion method; conditions: for zone of inhibition at 50 µg/mL: MRSA090, 24 h, read-out: DIZ
Staphylococcus aureus [19] = assay: Antibacterial activity against methicillin resistant Staphylococcus aureus MRSA090 at 75 ug/ml after 24 hrs by agar well diffusion method; conditions: for zone of inhibition at 75 µg/mL: MRSA090, 24 h, read-out: DIZ
Staphylococcus aureus [20] = assay: Antibacterial activity against methicillin resistant Staphylococcus aureus MRSA090 at 100 ug/ml after 24 hrs by agar well diffusion method; conditions: for zone of inhibition at 100 µg/mL: MRSA090, 24 h, read-out: DIZ
Aspergillus niger [21] = assay: Antifungal activity against Aspergillus niger at 25 ug/ml after 48 hrs by agar well diffusion method
Aspergillus niger [22] = assay: Antifungal activity against Aspergillus niger at 50 ug/ml after 48 hrs by agar well diffusion method
Aspergillus niger [23] = assay: Antifungal activity against Aspergillus niger at 75 ug/ml after 48 hrs by agar well diffusion method
Aspergillus niger [24] = assay: Antifungal activity against Aspergillus niger at 100 ug/ml after 48 hrs by agar well diffusion method
Fusarium verticillioides [25] = assay: Antifungal activity against Fusarium moniliforme at 25 ug/ml after 48 hrs by agar well diffusion method
Fusarium verticillioides [26] = assay: Antifungal activity against Fusarium moniliforme at 50 ug/ml after 48 hrs by agar well diffusion method
Fusarium verticillioides [27] = assay: Antifungal activity against Fusarium moniliforme at 75 ug/ml after 48 hrs by agar well diffusion method
Fusarium verticillioides [28] = assay: Antifungal activity against Fusarium moniliforme at 100 ug/ml after 48 hrs by agar well diffusion method
Fusarium oxysporum [29] = assay: Antifungal activity against Fusarium oxysporum at 25 ug/ml after 48 hrs by agar well diffusion method
Fusarium oxysporum [30] = assay: Antifungal activity against Fusarium oxysporum at 50 ug/ml after 48 hrs by agar well diffusion method
Fusarium oxysporum [31] = assay: Antifungal activity against Fusarium oxysporum at 75 ug/ml after 48 hrs by agar well diffusion method
Fusarium oxysporum [32] = assay: Antifungal activity against Fusarium oxysporum at 100 ug/ml after 48 hrs by agar well diffusion method

| SMILES | diameter of the inhibition zone (DIZ) (Staphylococcus aureus [1]) | diameter of the inhibition zone (DIZ) (Staphylococcus aureus [2]) | diameter of the inhibition zone (DIZ) (Staphylococcus aureus [3]) | diameter of the inhibition zone (DIZ) (Staphylococcus aureus [4]) | diameter of the inhibition zone (DIZ) (Klebsiella pneumoniae [13]) | diameter of the inhibition zone (DIZ) (Klebsiella pneumoniae [14]) | diameter of the inhibition zone (DIZ) (Aspergillus niger [21]) | diameter of the inhibition zone (DIZ) (Aspergillus niger [22]) | diameter of the inhibition zone (DIZ) (Aspergillus niger [23]) | diameter of the inhibition zone (DIZ) (Aspergillus niger [24]) | diameter of the inhibition zone (DIZ) (Fusarium verticillioides [25]) | diameter of the inhibition zone (DIZ) (Fusarium verticillioides [26]) | diameter of the inhibition zone (DIZ) (Fusarium verticillioides [27]) | diameter of the inhibition zone (DIZ) (Fusarium verticillioides [28]) | diameter of the inhibition zone (DIZ) (Fusarium oxysporum [29]) | diameter of the inhibition zone (DIZ) (Fusarium oxysporum [30]) | diameter of the inhibition zone (DIZ) (Fusarium oxysporum [31]) | diameter of the inhibition zone (DIZ) (Fusarium oxysporum [32]) | zone of inhibition at 25 µg/mL (Bacillus subtilis [5]) [mm] | zone of inhibition at 50 µg/mL (Bacillus subtilis [6]) [mm] | other results |
| --- | --- | --- | --- | --- | --- | --- | --- | --- | --- | --- | --- | --- | --- | --- | --- | --- | --- | --- | --- | --- | --- |
| CCCCCC/C=N/Nc1nc2cccc(C)c2s1 | inactive | inactive | inactive | inactive | inactive | inactive | inactive | inactive | inactive | inactive | inactive | inactive | inactive | inactive | inactive | inactive | inactive | inactive | – | – | diameter of the inhibition zone (DIZ) (Bacillus subtilis [5]): inactive; diameter of the inhibition zone (DIZ) (Bacillus subtilis [6]): inactive; diameter of the inhibition zone (DIZ) (Bacillus subtilis [7]): inactive; diameter of the inhibition zone (DIZ) (Bacillus subtilis [8]): inactive; diameter of the inhibition zone (DIZ) (Escherichia coli [9]): inactive; diameter of the inhibition zone (DIZ) (Escherichia coli [10]): inactive; diameter of the inhibition zone (DIZ) (Escherichia coli [11]): inactive; diameter of the inhibition zone (DIZ) (Escherichia coli [12]): inactive; diameter of the inhibition zone (DIZ) (Klebsiella pneumoniae [15]): inactive; diameter of the inhibition zone (DIZ) (Klebsiella pneumoniae [16]): inactive; diameter of the inhibition zone (DIZ) (Staphylococcus aureus [17]): inactive; diameter of the inhibition zone (DIZ) (Staphylococcus aureus [18]): inactive; diameter of the inhibition zone (DIZ) (Staphylococcus aureus [19]): inactive; diameter of the inhibition zone (DIZ) (Staphylococcus aureus [20]): inactive |
| Cc1cccc2nc(N/N=C/c3ccc(O)cc3Br)sc12 | inactive | inactive | inactive | inactive | inactive | inactive | inactive | inactive | inactive | inactive | inactive | inactive | inactive | inactive | inactive | inactive | inactive | inactive | 7 | 11 | zone of inhibition at 75 µg/mL (Bacillus subtilis [7]): 13 mm; zone of inhibition at 100 µg/mL (Bacillus subtilis [8]): 15 mm; zone of inhibition at 25 µg/mL (Escherichia coli [9]): 6 mm; zone of inhibition at 50 µg/mL (Escherichia coli [10]): 9 mm; zone of inhibition at 75 µg/mL (Escherichia coli [11]): 11 mm; zone of inhibition at 100 µg/mL (Escherichia coli [12]): 16 mm; zone of inhibition at 75 µg/mL (Klebsiella pneumoniae [15]): 11 mm; zone of inhibition at 100 µg/mL (Klebsiella pneumoniae [16]): 14 mm; zone of inhibition at 25 µg/mL (Staphylococcus aureus [17]): 7 mm; zone of inhibition at 50 µg/mL (Staphylococcus aureus [18]): 11 mm; zone of inhibition at 75 µg/mL (Staphylococcus aureus [19]): 14 mm; zone of inhibition at 100 µg/mL (Staphylococcus aureus [20]): 17 mm |
| COc1cc(/C=N/Nc2nc3cccc(C)c3s2)ccc1O | – | – | – | – | – | – | inactive | inactive | inactive | inactive | inactive | inactive | inactive | inactive | inactive | inactive | – | – | 15 | 19 | zone of inhibition at 25 µg/mL (Staphylococcus aureus [1]; read-out: DIZ): 13 mm; zone of inhibition at 50 µg/mL (Staphylococcus aureus [2]; read-out: DIZ): 17 mm; zone of inhibition at 75 µg/mL (Staphylococcus aureus [3]; read-out: DIZ): 22 mm; zone of inhibition at 100 µg/mL (Staphylococcus aureus [4]; read-out: DIZ): 26 mm; zone of inhibition at 75 µg/mL (Bacillus subtilis [7]): 23 mm; zone of inhibition at 100 µg/mL (Bacillus subtilis [8]): 28 mm; zone of inhibition at 25 µg/mL (Escherichia coli [9]): 10 mm; zone of inhibition at 50 µg/mL (Escherichia coli [10]): 15 mm; zone of inhibition at 75 µg/mL (Escherichia coli [11]): 21 mm; zone of inhibition at 100 µg/mL (Escherichia coli [12]): 27 mm; zone of inhibition at 25 µg/mL (Klebsiella pneumoniae [13]; read-out: DIZ): 4 mm; zone of inhibition at 50 µg/mL (Klebsiella pneumoniae [14]; read-out: DIZ): 10 mm; zone of inhibition at 75 µg/mL (Klebsiella pneumoniae [15]): 14 mm; zone of inhibition at 100 µg/mL (Klebsiella pneumoniae [16]): 16 mm; zone of inhibition at 25 µg/mL (Staphylococcus aureus [17]): 12 mm; zone of inhibition at 50 µg/mL (Staphylococcus aureus [18]): 16 mm; zone of inhibition at 75 µg/mL (Staphylococcus aureus [19]): 19 mm; zone of inhibition at 100 µg/mL (Staphylococcus aureus [20]): 24 mm; zone of inhibition at 75 µg/mL (Fusarium oxysporum [31]; read-out: DIZ): 8 mm; zone of inhibition at 100 µg/mL (Fusarium oxysporum [32]; read-out: DIZ): 12 mm |
